For 17 compounds, logP and chromatographic logP results are on record in patent publication US6441043B1, “Glyoxylic acid amides” (priority 1997, dated 2002).

A word on the logP: it is the decadic logarithm of the partition coefficient of the neutral form, usually between octanol and water. For orientation: chromatographic logP means lipophilicity estimated from chromatographic retention.

The data set in a line: logP determination by HPLC (EEC directive 79/831 Annex V. A8). Format: physicochemical. The following applies: HPLC gradient method, acetonitrile/0.1% aqueous phosphoric acid.
[1] abbreviates: E/Z mixture, first value (matches the E isomer).
[2] abbreviates: E/Z mixture, second printed value (matches the Z isomer).
[3] abbreviates: single isomer (E or Z as in isomer column).

With `CCOc1ccc(CCNC(=O)C(=NOC)c2ccc(Br)cc2)cc1OC` (mixture of isomers) [Example 3], the logP was 3.18 under setting [1] and 3.44 under setting [2].
On to `CCOc1ccc(CCNC(=O)C(=NOC)c2ccc(C)cc2)cc1OC` (mixture of isomers) [Example 5], for which the logP under setting [1] is 2.87 and the logP under setting [2] is 3.05.
`CCOc1ccc(CCNC(=O)C(=NOC)c2ccc(CC)cc2)cc1OC` (mixture of isomers) [Example 6]: the logP was found to be 3.21 under setting [1] and 3.40 under setting [2].
In the case of `CCON=C(C(=O)NCCc1ccc(OCC)c(OC)c1)c1ccc(Br)cc1` (mixture of isomers) [Example 19], the logP by setting is: under setting [1], 3.51; under setting [2], 3.80.
Take `CCON=C(C(=O)NCCc1ccc(OCC)c(OC)c1)c1ccc(Cl)cc1` (mixture of isomers) [Example 21]: the logP is, setting by setting: under setting [1], 3.41; under setting [2], 3.69.
On to `CCON=C(C(=O)NCCc1ccc(OCC)c(OC)c1)c1ccc(C)cc1` (mixture of isomers) [Example 22], for which the lipophilicity (logP) under setting [1] is reported as 3.19 and the logP under setting [2] is reported as 3.48.
Regarding `CCON=C(C(=O)NCCc1ccc(OCC)c(OC)c1)c1ccc(CC)cc1` (mixture of isomers) [Example 23], the logP is given as 3.55 under setting [1] and 3.85 under setting [2].
As for `CCOc1ccc(CCNC(=O)C(=NOC)c2ccc(Cl)cc2)cc1OC` (racemic) [Example 1, N-[2-(4-ethoxy-3-methoxyphenyl)-1-ethyl]-2-methoxyimino-2-(4-chlorophenyl)-acetamide], the chromatographic logP is 3.08 under setting [1] and 3.26 under setting [2].
Under setting [3], `CCOc1ccc(CCNC(=O)C(=NOC)c2ccc(Br)cc2)cc1OC` [Example 9] had a logP of 3.44.
Turning to `CCOc1ccc(CCNC(=O)C(=NOC)c2ccc(Br)cc2)cc1OC` [Example 10], the logP under setting [3] is on record as 3.18.
`CCOc1ccc(CCNC(=O)C(=NOC)c2ccc(Cl)cc2)cc1OC` [Example 11] yielded a logP under setting [3] of 3.08.
`CCOc1ccc(CCNC(=O)C(=NOC)c2ccc(Cl)cc2)cc1OC` [Example 12]: the logP under setting [3] was 3.26.
`CCOc1ccc(CCNC(=O)C(=NOC)c2ccc(C)cc2)cc1OC` [Example 15]: the logP under setting [3] is reported as 2.87.
For `CCOc1ccc(CCNC(=O)C(=NOC)c2ccc(CC)cc2)cc1OC` [Example 16], under setting [3], the logP came out at 3.04.
`CCOc1ccc(CCNC(=O)C(=NOC)c2ccc(CC)cc2)cc1OC` [Example 17] displayed a logP under setting [3] of 3.21.
As for `CCON=C(C(=O)NCCc1ccc(OCC)c(OC)c1)c1ccc(Br)cc1` [Example 24], the logP under setting [3] worked out at 3.80.
In the case of `CCON=C(C(=O)NCCc1ccc(OCC)c(OC)c1)c1ccc(C)cc1` [Example 27], the logP under setting [3] worked out at 3.48.
